Assay results as given in patent US20120269834A1, “IMMUNOGLOBULIN CLEAVAGE FRAGMENT VACCINE COMPOSITIONS” (priority 2010, published 2012).
Where “and” joins values, the source holds several entries; their conditions need not be identical. Equal values may be shown once. Ends that are not written are not given here. * marks the point of attachment. Biotin = O=C1N[C@H]2[C@H](CS[C@H]2CCCCC(=O)*)N1

What was measured:
[1] = molecular target: human IgG1 (Homo sapiens, UniProt P01857); assay: action of human and bacterial proteases on human IgG1 (Table 1); format: biochemical; details: for Major Product: None = no detectable cleavage in 24 hours; for Cleaved Site: human IgG1 heavy chain, EU numbering
Description: Table 1 is a summary of the findings concerning the action of human proteases and two bacterial proteases on human IgG1. The term “Coagulation proteinases” refers to serum coagulation cascade proteins including; FXIIa, FIXa, FXa, thrombin and activated protein C; plasmin was plasminogen co-incubated with plasminogen activators; tPA, streptokinase and staphylokinase; “plasminogen activators alone” are without plasminogen; and the MMPs were recombinant proteinases obtained either as the active form or the pro-enzyme as detailed in the Materials; and “None” denotes no detectable cleavage in 24 hours. Except where indicated all enzymes where human. The residue designations are for the EU numbering system for the IgG1 antibody heavy chain where the 25 residues of SEQ ID NO: 1 corresponds to residues 219 through 243 of the complete mature heavy chain.

[2] = molecular target: Fab fragment of the 2095-2 antibody; details: 25° C; for kd / ka: 1:1 (Langmuir) model; for ka: global fit of three Fab surface densities; for Kd: calculated KD
Description: The specificity of binding was further examined using a Fab fragment of the 2095-2 antibody using a surface plasmon resonance platform (Biacore). Briefly, the Fab was immobilized to a CM5 sensor chip in a Biacore 2000 at three different surface densities (8500, 1650, and 350 RU) using standard NHS/EDC coupling. The running buffer contained 10 mM HEPES pH 7.4, 150 mM NaCl, and 0.01% Tween-20. Data were collected at 25° C.
Three N-terminally biotinylated peptides were tested for binding of to the immobilized Fab: WT, representing the expected sequence of a peptide fragment from a human IgG1 cleavage site after cleavage by the Streptococcus pyogenes IdeS protease; E233A, representing a variant of having a single alanine substitution at the amino acid residue four positions upstream of the C-terminus; and L234A, a variant having a single alanine substitution at the amino acid residue three positions upstream from the C-terminus. The peptides were modified by substituting serine for cysteine to make them compatible with the coupling chemistry and preserve the monomeric structure.
Peptides Wild type and E233A were tested in a 3-fold dilution series using 588 nM and 2.9 uM as the highest concentration, respectively. Peptide L234A was tested at 14.7 uM as the highest concentration in a 2-fold dilution series. Each peptide concentration series was tested in triplicate over the three different density Fab surfaces. The association and dissociation were monitored for 1 minute. Surfaces were regenerated with a 12 second injection of 1/500 dilution of phosphoric acid.

[3] = test system: cleavage site specific analogueue peptide; assay: ELISA titers to the peptide analogueue after immunization of rabbits; format: in vivo, rabbit; details: reciprocal of the dilution at which a signal was detectable, individual immunized rabbits
Source text: The procedure described in Example 3 verified that test subject rabbits have had previously developed immune titers to Staph. aureus antigens which would provide for natural bacterial targeting antibodies. To determine if rabbits would generated a sufficiently specific and robust cleavage site specific antibody response after vaccination, with cleavage site peptides, to protect against a bacterial challenge, the following experiment was perfomed where rabbits were immunized with a GluV8-cleavage site peptide analogueue (residues 7-15 of SEQ ID NO: 1, […]) conjugated to the immunogen KLH.
Following immunization, the reactivity of rabbit serum to the peptide analogueue was tested by ELISA. […] Cleavage site specific antibodies were also detected in the wiffle ball fluids of all six rabbits, with the same animal (657) having a low level of detectible antibodies.

[4] = test system: S. aureus (ATCC 29213); assay: wiffle ball (tissue cage) S. aureus infection model in rabbits; format: in vivo
Source text: In order to test the capacity of cleavage site specific antibodies to rescue cleaved IgGs in vivo, a model for bacterial infection employing a “tissue cage” (Fernandez J A, et. al. (1997) Antimicrob. Agents Chemother. 43(3):667-671) was adopted. In this system, a wiffle ball is surgically implanted subcutaneously in the dorsal cervical area. The model allows the infectious agents to be localized within an easily accessible fluid compartment, a tissue pouch, and has been used to assess the efficacy of antibiotics against bacteria.
In the final phase of the study, the immunized and non-immunized rabbits were inoculated with 6.2 log10 colony forming units (CFUs) of S. aureus (ATCC 29213) directly into the wiffle-ball compartments.
The bacterial counts and test subject viability were monitored over the course of two weeks for bacterial counts and survival. The data shown in FIG. 9 indicate that during the first week of the study, the average bacterial counts for control animals were several logs higher than cleavage site specific vaccinated animals. For example, on day 2 the control had 7.2 log10 CFU/ml wiffle ball fluid while the immunized group had 5.2 log10 CFU/ml wiffle ball fluid.

[5] = test system: platelets; assay: circulating platelet counts in dogs; format: in vivo, dog
Description: First, the c7E3 antibody antigen binding and platelet depletion parameters were established in dogs.
c7E3 IgG and c7E3 IgG single-cleaved by IdeS protease were also compared in vivo. Three groups of 5 animals received either saline control, intact c7E3 IgG (0.05 mg/kg) or c7E3 single-cleaved IgG (0.05 mg/kg). Platelet counts were monitored at baseline and at 2, 24, 48, 72 and 96 hours post-administration. Limiting the study to 5 days minimized the likelihood of anti-c7E3 immune responses that might confound the interpretation of the results. The results are presented in FIG. 3 as the mean platelet count±SD for each animal group at each time point. The extent of the error bars connotes the normal variability of platelet counts in different animals (for example, the predose counts for the 5 animals in the single-cleaved IgG treatment group were 175,000, 355,000, 305,000, 276,000 and 334,000 per μL, respectively).
To be consistent with the prior experiments, the variants of c7E3 were all administered at the 0.05 mg/kg dose. The unique aspect of the experiment (groups 6 and 7) involves the infusion of the first targeting mAb followed by the cleavage site specific mAb after a 10 minute delay. […] Platelet counts were monitored over a 96-hour period. […]

[6] = test system: platelet surface IIb/III3 receptors; assay: platelet aggregation assay; format: cell-based; details: 5 μM ADP; compared with intact c7E3 IgG
Description: c7E3 inhibits platelet aggregation by binding to platelet surface IIb/III3 receptors—thereby blocking the ability of fibrinogen to bind to the receptors on activated platelets and to clump them together. The respective inhibitory profiles of intact and single-cleaved c7E3 IgG were tested in a platelet aggregation assay. Platelet aggregation is measured as an increase of light transmission through a platelet suspension after activation with a physiological agonist. The inhibition is compared to control aggregation to 5 μM adenosine diphosphate (ADP). The percent inhibition was calculated as: control aggregation—test aggregation X 100%, divided by control aggregation.

Chain of human IgG1 (P01857 1-330 isoform P01857-1, other chains not shown): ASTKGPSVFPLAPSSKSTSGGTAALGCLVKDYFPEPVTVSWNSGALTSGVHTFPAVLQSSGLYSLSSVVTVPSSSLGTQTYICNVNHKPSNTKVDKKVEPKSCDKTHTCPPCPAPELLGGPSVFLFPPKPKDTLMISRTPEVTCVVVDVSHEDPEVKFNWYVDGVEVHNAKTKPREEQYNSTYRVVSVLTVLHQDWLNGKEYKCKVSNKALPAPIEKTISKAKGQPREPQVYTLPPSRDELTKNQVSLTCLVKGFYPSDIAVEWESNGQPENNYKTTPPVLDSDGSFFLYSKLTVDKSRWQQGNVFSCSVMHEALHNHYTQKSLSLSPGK

## Cathepsin G: human serine endopeptidase
[1]
  Major Product: F(ab′)2 +
  Cleaved Site: Glu^233-

## Glutamyl endopeptidase I (Glu V8 protease): glutamyl endopeptidase I from Staph. aureus
[1]
  Major Product: F(ab′)2 +
  Cleaved Site: Glu^233-

## Cathepsin D: human protease
[1]
  Major Product: None

## Biotin-TSPPSPAPELLG [Wt]
[2]
  kd: 0.00443 ± 0.02 s⁻¹
  ka: 5.22 ± 0.04 M-1s-1 × 10^−5
  Kd: 8.5 nM

## C-T-S-P-P-S-P-S-P-A-P-E (CTSPPSPSPAPE; also: conjugated to KLH) [Glutamyl endopeptidase cleavage site analogueue peptide conjugated to keyhole limpet hemocyanin, used to vaccinate rabbits]
[3]
  Serum (titer): 640 and 12,800 and 51,000 and 820,000 and 205,000
[3]; wiffle ball fluid
  Wiffle ball (titer): 3,200 and 12,800 (3×) and 51,000 and 320
[4]; day 2, immunized rabbits inoculated with 6.2 log10 CFUs
  average bacterial counts: 5.2 log10 CFU/ml wiffle ball fluid
[4]; end of the two week study
  animals viable: 100%

## Stromelysin (MMP-3): recombinant human MMP
[1]
  Major Product: F(ab′)2 +
  Cleaved Site: Pro^232-

## Interstitial collagenase (MMP-1): recombinant human MMP
[1]
  Major Product: None

## Matrilysin (MMP-7): recombinant human MMP
[1]
  Major Product: F(ab′)2 +
  Cleaved Site: Leu^234-

## c7E3 single-cleaved IgG: c7E3 IgG single-cleaved in the lower hinge by IdeS protease
[5]; 0.05 mg/kg, groups of 5 animals, monitored to 96 hours
  effect on platelet numbers: essentially without effect
[5]; FIG. 12 study, groups of 3 animals, c7E3 variants 0.05 mg/kg, 2095-2 0.5 mg/kg
  effect on platelet numbers: without effect
[6]
  binding/inhibition of platelet aggregation after single lower hinge cleavage by IdeS: no loss of binding/inhibition

## Neutrophil elastase: human serine endopeptidase
[1]
  Major Product: Fab + Fc
  Cleaved Site: Thr^223-

## Biotin-TSPPSPAPALLG [E233A]
[2]
  kd: 0.1070 ± 0.04 s⁻¹
  ka: 7.29 ± 0.03 M-1s-1 × 10^−5
  Kd: 147 nM

## Collagenase 2 (MMP-8): recombinant human MMP
[1]
  Major Product: None

## Biotin-TSPPSPAPEALG [L234A]
[2]
  kd: 1.03 ± 0.01 s⁻¹
  ka: 1.24 ± 0.01 M-1s-1 × 10^−5
  Kd: 8340 nM
